Experimental data reported in ChEMBL document CHEMBL3393060, “Inhibitors of c-Jun N-terminal kinases: an update” (J Med Chem, 2015).
One block for each compound: values may come before it.

Columns and labels:
[1] = biological target: Casein kinase I isoform delta (Homo sapiens, UniProt P48730); experiment: Inhibition of CK1delta (unknown origin) by KINOMEScan assay
[2] = biological target: T1, Mitogen-activated protein kinase 8 (Homo sapiens, UniProt P45983); experiment: Inhibition of JNK1 (unknown origin)
T1 sequence (P45983 whole entry, canonical isoform): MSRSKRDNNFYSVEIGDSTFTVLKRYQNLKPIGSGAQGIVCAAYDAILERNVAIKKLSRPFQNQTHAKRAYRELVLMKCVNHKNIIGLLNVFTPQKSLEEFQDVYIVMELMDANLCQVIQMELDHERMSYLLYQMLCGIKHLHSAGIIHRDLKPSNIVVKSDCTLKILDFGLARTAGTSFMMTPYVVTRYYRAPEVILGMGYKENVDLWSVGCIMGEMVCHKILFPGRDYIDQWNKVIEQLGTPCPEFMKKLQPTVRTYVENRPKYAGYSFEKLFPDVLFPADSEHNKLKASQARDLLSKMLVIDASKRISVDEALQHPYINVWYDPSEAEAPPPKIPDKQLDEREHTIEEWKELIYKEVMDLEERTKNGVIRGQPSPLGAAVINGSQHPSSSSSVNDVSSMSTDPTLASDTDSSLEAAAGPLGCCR

[3] = biological target: Phosphatidylinositol 4,5-bisphosphate 3-kinase catalytic subunit gamma isoform (Homo sapiens, UniProt P48736); experiment: Inhibition of PI3Kgamma (unknown origin) by KINOMEScan assay
Phosphatidylinositol 4,5-bisphosphate 3-kinase catalytic subunit gamma isoform, sequence (P48736 whole entry, canonical isoform): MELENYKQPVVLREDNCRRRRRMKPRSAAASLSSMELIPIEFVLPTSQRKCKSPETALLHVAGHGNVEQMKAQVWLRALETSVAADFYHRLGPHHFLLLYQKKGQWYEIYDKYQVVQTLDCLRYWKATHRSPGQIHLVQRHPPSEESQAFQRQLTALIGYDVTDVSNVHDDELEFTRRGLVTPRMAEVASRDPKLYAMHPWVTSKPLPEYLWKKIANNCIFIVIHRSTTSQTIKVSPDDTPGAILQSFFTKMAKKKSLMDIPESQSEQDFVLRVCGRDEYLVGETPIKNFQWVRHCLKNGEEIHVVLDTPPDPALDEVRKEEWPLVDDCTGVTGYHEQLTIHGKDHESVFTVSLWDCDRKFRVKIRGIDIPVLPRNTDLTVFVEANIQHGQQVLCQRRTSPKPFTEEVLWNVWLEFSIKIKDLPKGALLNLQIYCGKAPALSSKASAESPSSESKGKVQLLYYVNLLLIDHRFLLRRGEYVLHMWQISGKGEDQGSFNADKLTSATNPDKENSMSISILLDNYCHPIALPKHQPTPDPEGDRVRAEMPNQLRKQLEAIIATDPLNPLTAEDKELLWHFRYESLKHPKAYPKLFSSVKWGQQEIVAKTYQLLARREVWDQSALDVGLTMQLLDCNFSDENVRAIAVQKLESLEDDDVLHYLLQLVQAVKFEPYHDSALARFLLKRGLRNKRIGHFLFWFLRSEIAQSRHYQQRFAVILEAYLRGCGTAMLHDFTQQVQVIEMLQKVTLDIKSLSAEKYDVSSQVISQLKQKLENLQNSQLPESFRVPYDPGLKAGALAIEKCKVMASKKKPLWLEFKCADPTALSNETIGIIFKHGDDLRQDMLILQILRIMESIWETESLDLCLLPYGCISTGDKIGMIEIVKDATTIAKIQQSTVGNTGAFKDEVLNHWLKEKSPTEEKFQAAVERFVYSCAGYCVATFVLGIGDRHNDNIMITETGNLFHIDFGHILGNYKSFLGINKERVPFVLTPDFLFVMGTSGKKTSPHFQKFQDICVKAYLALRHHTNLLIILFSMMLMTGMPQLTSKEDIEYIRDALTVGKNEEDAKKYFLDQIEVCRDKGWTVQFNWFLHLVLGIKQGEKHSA

[4] = biological target: T2, Mitogen-activated protein kinase 9 (Homo sapiens, UniProt P45984); experiment: Inhibition of JNK2 (unknown origin)
T2 sequence (P45984 whole entry): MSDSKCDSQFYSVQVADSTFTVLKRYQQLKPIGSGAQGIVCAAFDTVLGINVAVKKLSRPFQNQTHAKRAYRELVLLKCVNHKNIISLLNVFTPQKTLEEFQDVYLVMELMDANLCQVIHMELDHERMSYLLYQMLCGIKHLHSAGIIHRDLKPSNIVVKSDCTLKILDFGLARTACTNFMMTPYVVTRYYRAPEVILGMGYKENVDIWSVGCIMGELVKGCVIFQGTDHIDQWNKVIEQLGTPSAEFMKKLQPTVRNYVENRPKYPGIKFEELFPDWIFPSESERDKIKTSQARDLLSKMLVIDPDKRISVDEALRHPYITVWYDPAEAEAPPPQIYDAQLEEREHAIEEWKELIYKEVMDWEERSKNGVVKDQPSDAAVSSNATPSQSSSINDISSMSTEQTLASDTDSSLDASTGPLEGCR

[5] = biological target: MAP kinase-interacting serine/threonine-protein kinase 2 (Homo sapiens, UniProt Q9HBH9); experiment: Inhibition of MKNK2 (unknown origin) by KINOMEScan assay
MAP kinase-interacting serine/threonine-protein kinase 2, sequence (Q9HBH9 whole entry): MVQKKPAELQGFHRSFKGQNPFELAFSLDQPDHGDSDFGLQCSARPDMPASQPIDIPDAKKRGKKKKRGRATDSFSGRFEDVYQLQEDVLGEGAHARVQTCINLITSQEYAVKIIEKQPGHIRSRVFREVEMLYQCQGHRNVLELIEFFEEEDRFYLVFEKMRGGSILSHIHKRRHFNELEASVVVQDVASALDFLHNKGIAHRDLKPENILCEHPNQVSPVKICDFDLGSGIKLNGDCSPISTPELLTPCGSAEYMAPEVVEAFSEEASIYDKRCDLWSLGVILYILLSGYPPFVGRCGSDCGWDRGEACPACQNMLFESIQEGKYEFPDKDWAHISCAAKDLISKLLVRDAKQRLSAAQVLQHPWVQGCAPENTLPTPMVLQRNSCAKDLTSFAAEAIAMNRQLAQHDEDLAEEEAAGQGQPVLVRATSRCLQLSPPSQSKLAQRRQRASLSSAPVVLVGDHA

[6] = biological target: T1, Mitogen-activated protein kinase 8; experiment: Inhibition of JNK1 (unknown origin) by time-resolved fluorescence assay
[7] = Clearance in rat at 1 mg/kg, iv and 2 mg/kg, po; type: ADME, organism-based; conditions: in vivo
[8] = Half life in rat at 1 mg/kg, iv and 2 mg/kg, po; type: ADME, organism-based; conditions: in vivo
[9] = biological target: T3, Mitogen-activated protein kinase 10 (Homo sapiens, UniProt P53779); experiment: Inhibition of JNK3 (unknown origin) by time-resolved fluorescence assay
T3 sequence (P53779 whole entry): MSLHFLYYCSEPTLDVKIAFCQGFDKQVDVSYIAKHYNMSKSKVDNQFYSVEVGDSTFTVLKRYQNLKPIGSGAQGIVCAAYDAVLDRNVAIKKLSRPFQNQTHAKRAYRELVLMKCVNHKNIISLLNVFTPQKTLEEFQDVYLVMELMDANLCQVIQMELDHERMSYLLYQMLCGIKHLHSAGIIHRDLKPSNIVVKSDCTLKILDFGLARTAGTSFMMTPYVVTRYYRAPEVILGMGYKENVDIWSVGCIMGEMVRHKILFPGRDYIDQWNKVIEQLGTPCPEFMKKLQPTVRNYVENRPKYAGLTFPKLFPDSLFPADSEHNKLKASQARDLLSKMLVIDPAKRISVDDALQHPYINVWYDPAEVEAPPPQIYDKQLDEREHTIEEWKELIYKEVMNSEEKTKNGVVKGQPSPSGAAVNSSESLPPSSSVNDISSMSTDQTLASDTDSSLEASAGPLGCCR

[10] = Oral bioavailability in rat at 2 mg/kg; type: ADME, organism-based; conditions: in vivo
[11] = biological target: MAP kinase p38 (Homo sapiens, UniProt O15264+Q15759+Q16539+P53778); experiment: Inhibition of p38 (unknown origin); type: protein assay
[12] = biological target: Mitogen-activated protein kinase 10 (Rattus norvegicus, UniProt P49187); experiment: Inhibition of JNK3-mediated c-jun phosphorylation in rat INS1 cells; type: cell-based
Mitogen-activated protein kinase 10 (Rattus norvegicus, UniProt P49187), sequence (P49187 whole entry): as the sequence (P53779 whole entry) above, with Q27H, Y32S, I33V, A34V counted along it

[13] = biological target: T3, Mitogen-activated protein kinase 10; experiment: Inhibition of JNK3-mediated c-jun phosphorylation in human A375 cells after 1 hr incubation; type: cell-based, A-375
[14] = biological target: Mast/stem cell growth factor receptor Kit (Homo sapiens, UniProt P10721); experiment: Inhibition of KIT (unknown origin)
Mast/stem cell growth factor receptor Kit (Homo sapiens, UniProt P10721), sequence (P10721 whole entry): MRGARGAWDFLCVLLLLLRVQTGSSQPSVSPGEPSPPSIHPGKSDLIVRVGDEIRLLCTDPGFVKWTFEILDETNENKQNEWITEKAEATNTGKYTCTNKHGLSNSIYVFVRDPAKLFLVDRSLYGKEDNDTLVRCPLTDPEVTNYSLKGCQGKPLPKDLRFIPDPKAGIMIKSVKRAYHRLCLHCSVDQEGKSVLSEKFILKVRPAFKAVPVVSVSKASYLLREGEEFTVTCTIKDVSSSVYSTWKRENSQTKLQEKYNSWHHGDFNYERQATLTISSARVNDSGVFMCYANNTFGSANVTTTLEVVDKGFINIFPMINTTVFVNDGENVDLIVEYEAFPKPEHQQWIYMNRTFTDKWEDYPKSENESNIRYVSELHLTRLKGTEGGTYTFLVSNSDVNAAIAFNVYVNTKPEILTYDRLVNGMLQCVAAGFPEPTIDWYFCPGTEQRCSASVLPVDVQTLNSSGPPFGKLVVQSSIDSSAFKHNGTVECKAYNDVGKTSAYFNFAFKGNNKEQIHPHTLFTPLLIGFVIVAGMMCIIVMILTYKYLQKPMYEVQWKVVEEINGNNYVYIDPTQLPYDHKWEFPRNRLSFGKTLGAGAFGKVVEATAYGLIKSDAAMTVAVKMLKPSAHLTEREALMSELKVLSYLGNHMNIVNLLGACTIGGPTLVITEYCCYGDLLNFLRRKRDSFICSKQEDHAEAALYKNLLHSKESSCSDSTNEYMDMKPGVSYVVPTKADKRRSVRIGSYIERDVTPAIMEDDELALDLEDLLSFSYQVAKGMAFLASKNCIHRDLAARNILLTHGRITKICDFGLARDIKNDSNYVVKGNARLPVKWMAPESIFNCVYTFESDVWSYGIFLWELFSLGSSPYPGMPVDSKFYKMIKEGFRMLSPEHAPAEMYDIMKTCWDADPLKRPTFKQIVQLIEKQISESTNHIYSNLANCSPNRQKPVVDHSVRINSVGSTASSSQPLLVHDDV

[15] = biological target: T1, Mitogen-activated protein kinase 8; experiment: Inhibition of JNK1 (unknown origin) after 1 hr incubation
[16] = biological target: T2, Mitogen-activated protein kinase 9; experiment: Inhibition of JNK2 (unknown origin) by JIP-FP displacement assay
[17] = biological target: T3, Mitogen-activated protein kinase 10; experiment: Inhibition of JNK3 (unknown origin) by JIP-FP displacement assay
[18] = biological target: T1, Mitogen-activated protein kinase 8; experiment: Inhibition of JNK1 (unknown origin) by JIP-FP displacement assay
[19] = biological target: Leucine-rich repeat serine/threonine-protein kinase 2 (Homo sapiens, UniProt Q5S007, G2019S); experiment: Inhibition of LRRK2 G2019S mutant (unknown origin)
[20] = biological target: T2, Mitogen-activated protein kinase 9; experiment: Inhibition of JNK2 (unknown origin) by time-resolved fluorescence assay
[21] = biological target: Non-receptor tyrosine-protein kinase TYK2 (Homo sapiens, UniProt P29597); experiment: Inhibition of TYK2 (unknown origin)
[22] = biological target: Cytochrome P450 2C8 (Homo sapiens, UniProt P10632); experiment: Inhibition of CYP2C8 (unknown origin); type: ADME
[23] = organism: Rattus norvegicus; experiment: Neuroprotective effect against D-amphetamine-induced circling in rats assessed as reduction in behavioral deficits; type: functional
[24] = biological target: Platelet-derived growth factor receptor beta (Homo sapiens, UniProt P09619); experiment: Inhibition of PDGFRbeta (unknown origin)
[25] = Neuroprotective effect against MPP+-induced cell death in primary cultures of mouse mesencephalic dopaminergic neurons […] single dose after 8 hrs; type: functional
[26] = biological target: Mast/stem cell growth factor receptor Kit (Homo sapiens, UniProt P10721, V559D); experiment: Inhibition of KIT V559D (unknown origin)
[27] = system: Rattus norvegicus; experiment: Protective activity in rat model of myocardial ischemia-reperfusion injury assessed as reduction in infarct volume at 5 mg/kg; type: functional
[28] = biological target: Cytochrome P450 2C19 (Homo sapiens, UniProt P33261); experiment: Inhibition of CYP2C19 (unknown origin); type: ADME
Cytochrome P450 2C19, sequence (P33261 whole entry): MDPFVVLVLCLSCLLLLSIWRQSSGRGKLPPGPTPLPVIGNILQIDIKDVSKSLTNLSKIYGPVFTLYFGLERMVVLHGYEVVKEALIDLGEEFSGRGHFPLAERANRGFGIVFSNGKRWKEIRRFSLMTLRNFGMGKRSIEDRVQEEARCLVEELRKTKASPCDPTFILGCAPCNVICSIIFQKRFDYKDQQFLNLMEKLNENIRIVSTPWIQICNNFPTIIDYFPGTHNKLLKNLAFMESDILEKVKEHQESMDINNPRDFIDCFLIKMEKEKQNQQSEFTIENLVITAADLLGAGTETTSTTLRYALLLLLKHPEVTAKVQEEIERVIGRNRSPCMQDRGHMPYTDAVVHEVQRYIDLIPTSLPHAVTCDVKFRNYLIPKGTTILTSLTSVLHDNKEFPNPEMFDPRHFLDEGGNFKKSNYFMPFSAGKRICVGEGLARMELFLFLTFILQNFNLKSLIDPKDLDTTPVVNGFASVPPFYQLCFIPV

[29] = biological target: Cytochrome P450 3A4 (Homo sapiens, UniProt P08684); experiment: Inhibition of CYP3A4 (unknown origin); type: ADME
[30] = biological target: Cytochrome P450 2C9 (Homo sapiens, UniProt P11712); experiment: Inhibition of CYP2C9 (unknown origin); type: ADME
[31] = biological target: Cytochrome P450 1A2 (Homo sapiens, UniProt P05177); experiment: Inhibition of CYP1A2 (unknown origin); type: ADME
[32] = biological target: Cytochrome P450 2D6 (Homo sapiens, UniProt P10635); experiment: Inhibition of CYP2D6 (unknown origin); type: ADME
[33] = biological target: Cytochrome P450 2E1 (Homo sapiens, UniProt P05181); experiment: Inhibition of CYP2E1 (unknown origin); type: ADME
[34] = biological target: Cytochrome P450 2B6 (Homo sapiens, UniProt P20813); experiment: Inhibition of CYP2B6 (unknown origin); type: ADME
[35] = biological target: Cytochrome P450 2A6 (Homo sapiens, UniProt P11509); experiment: Inhibition of CYP2A6 (unknown origin); type: ADME
[36] = biological target: T3, Mitogen-activated protein kinase 10; experiment: Inhibition of JNK3-mediated c-jun phosphorylation in human HeLa cells after 1 hr incubation; type: cell-based
[37] = Oral bioavailability in rat; type: ADME, organism-based; conditions: in vivo
[38] = organism: Rattus norvegicus; experiment: Ratio of drug level brain to plasma in rat; type: ADME, organism-based

Casein kinase I isoform delta, sequence (P48730 whole entry, canonical isoform): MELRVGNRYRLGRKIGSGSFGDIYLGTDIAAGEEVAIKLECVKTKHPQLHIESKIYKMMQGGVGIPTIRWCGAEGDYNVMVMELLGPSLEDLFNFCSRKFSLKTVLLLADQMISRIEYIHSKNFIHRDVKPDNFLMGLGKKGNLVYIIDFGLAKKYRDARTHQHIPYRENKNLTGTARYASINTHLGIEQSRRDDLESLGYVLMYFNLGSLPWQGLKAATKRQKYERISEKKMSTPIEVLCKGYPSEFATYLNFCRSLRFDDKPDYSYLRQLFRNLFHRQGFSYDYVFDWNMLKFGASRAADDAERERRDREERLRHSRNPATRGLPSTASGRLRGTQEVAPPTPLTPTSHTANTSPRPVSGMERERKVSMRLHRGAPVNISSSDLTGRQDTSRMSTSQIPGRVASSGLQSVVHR

SMILES: O/N=C1/c2ccccc2-c2nc3ccccc3nc21
- Kd [1]: 380 nM
- Kd [3]: 470 nM
- Kd [5]: 920 nM

SMILES: CN(C)C/C=C/C(=O)Nc1cccc(C(=O)Nc2ccc(Nc3nccc(-c4cccnc4)n3)cc2)c1
- IC50 [15]: 1.5 nM

SMILES: Cn1cc(-c2c[nH]c3ncc([C@H]4CC[C@H](N5CCOCC5)CC4)cc23)cn1
- IC50 [9]: 85 nM
- IC50 [20]: 123 nM
- IC50 [6]: 74 nM

SMILES: NC(=O)c1ccccc1Nc1nc(Nc2ccc(N3CCCC3=O)cc2)ncc1Cl
- IC50 [6]: 0.24 nM

SMILES: Cn1cc(-c2ccc3cnc(Nc4ccc(-n5cnc(N6CCOCC6)n5)cc4)nc3c2)cn1
- IC50 [12]: 310 nM
- IC50 [20]: 90 nM

SMILES: CS(=O)(=O)Nc1ccc(-c2ccnc(Nc3ccc(-n4ccnn4)cc3)n2)cc1
- IC50 [11]: > 20 µM
- IC50 [12]: 210 nM

SMILES: Cc1ccc(-c2ncn(-c3ccc(Nc4nccc(-c5cccc(N6CCOCC6)c5)n4)cc3)n2)cn1
- IC50 [11]: > 20 µM
- Kd [21]: < 1000 nM
- IC50 [22]: > 50 µM
- inhibition (INH) [23]: 90%
- Kd [24]: < 1000 nM
- IC50 [9]: 159 nM
- Activity [25]: >90%
- Kd [14]: > 20 µM
- Kd [26]: < 1000 nM
- inhibition in vivo at 5 mg/kg [27]: 34%
- IC50 [12]: 216 nM
- IC50 [28]: > 50 µM
- IC50 [29]: > 50 µM
- IC50 [30]: > 50 µM
- IC50 [20]: 283 nM
- IC50 [31]: > 50 µM
- IC50 [32]: > 50 µM
- IC50 [33]: > 50 µM
- IC50 [6]: 67 nM
- IC50 [34]: > 50 µM
- IC50 [35]: > 50 µM

SMILES: Fc1cc(-c2cc[nH]/c(=N/c3ccc(-n4cnc(N5CCOCC5)n4)cc3)n2)cc(N2CCOCC2)c1
- IC50 [11]: > 20 µM
- IC50 [12]: 54 nM
- IC50 [20]: 99 nM

SMILES: CN(C)c1ccc(-c2cnc3[nH]cc(-c4cn[nH]c4)c3c2)cc1
- IC50 [9]: 32 nM
- IC50 [20]: 59 nM
- IC50 [6]: 101 nM

SMILES: Cn1cc(-c2c[nH]c3ncc([C@H]4CC[C@H](N5CCCOCC5)CC4)cc23)cn1
- IC50 [20]: 339 nM
- IC50 [6]: 166 nM

SMILES: NC(=O)c1ccccc1Nc1nc(Nc2ccc(N3CCOCC3)cc2)ncc1Cl
- IC50 [9]: 0.3 nM
- IC50 [6]: 1 nM

SMILES: COc1cc(N2CCOCC2)ccc1Nc1ncc(Cl)c(Nc2ccccc2C(N)=O)n1
- bioavailability [37]: 30%
- BPR [38]: 17%
- IC50 [9]: 0.8 nM
- IC50 [12]: 3 nM
- IC50 [6]: 3 nM

More lines, now with the values ahead:

- Kd [1]: 560 nM
- Kd [2]: 240 nM
- Kd [3]: 430 nM
- Kd [4]: 290 nM
- Kd [5]: 1200 nM
SMILES: O=C(O/N=C1/c2ccccc2-c2nc3ccccc3nc21)c1ccco1

- IC50 [6]: 0.8 nM
SMILES: COc1ccc(CC(=O)Nc2cc3cc(-c4cnn(C)c4)ccc3cn2)cc1

- clearance [7]: 25 mL/min/kg
- half-life [8]: 3.3 min
- IC50 [9]: 40 nM
- bioavailability [10]: 27%
- IC50 [6]: 970 nM
SMILES: O=C(NCCN1CCN(C2CCC2)CC1)c1cccc(-n2ncc3cc(Nc4ccccc4Cl)ccc32)c1

- IC50 [11]: 3.7 µM
- IC50 [12]: 1200 nM
SMILES: COc1cc(NC(=O)c2cccc(-n3cc(NC(=O)Nc4ccccc4)cn3)c2)cc(OC)c1OC

- IC50 [13]: 2400 nM
SMILES: CN(C)C/C=C/C(=O)Nc1ccc(C(=O)Nc2cccc(Nc3nccc(-c4cccnc4)n3)c2)cc1

- Kd [14]: < 1 µM
SMILES: O=C(NCCN1CCOCC1)c1ccnc(-n2ncc3cc(Nc4ccccc4Cl)ccc32)c1

- IC50 [16]: 336 nM
- IC50 [17]: 12 nM
- IC50 [18]: 109 nM
- IC50 [12]: 2800 nM
- IC50 [19]: 99 nM
SMILES: COc1ccc2c(c1)OCC(C(=O)NC(=O)N(CC(=O)NCCCCCCNC(=O)c1ccc(-c3n[nH]c4ccccc34)cc1)CC(C)C)O2 (stereo not given)

- IC50 [11]: > 20 µM
- Kd [14]: > 20 µM
- IC50 [12]: 1300 nM
- IC50 [6]: 17 nM
SMILES: COc1cc(NC(=O)c2cccc(-n3cc(NC(=O)Nc4cccc(C)c4)cn3)c2)cc(OC)c1OC

- IC50 [36]: 48 nM
- IC50 [15]: 1.3 nM
- IC50 [13]: 9 nM
SMILES: CN(C)C/C=C/C(=O)Nc1cccc(C(=O)Nc2ccc(Nc3nccc(-c4c(-c5ccccc5)nn5ccccc45)n3)cc2)c1

- Kd [1]: 5700 nM
- Kd [2]: 270 nM
- Kd [3]: 12000 nM
- Kd [4]: 280 nM
- Kd [5]: 10000 nM
SMILES: COc1ccc(C(=O)O/N=C2/c3ccccc3-c3nc4ccccc4nc32)cc1OC
